Where two headings read alike, the source gives them in different places. Residues, ends and D or L forms follow the SMILES beside them.
Tests used:
[1] = 0.1 mM lipid, 37 °C, 100% = Triton X-100, repeated at least three times
Method: Large unilamellar vesicles (LUVs) and small unilamellar vesicles (SUVs) consisting of PI/DOPE/DPPC/PS/Chol/SM (4/23/30/8/20/15 ratio in moles)[33],[34], DSPC/POPE/PI/PS/lysoPC/SM/DOPG (37/21/7/9/3/18/5 ratio in moles)[35], and when required containing Rho-PE and NBD-PE, were formulated in 5 mM HEPES, 100 mM NaCl, pH 7.4. LUVs were prepared using the extrusion method as previously reported; lipids were first dissolved in chloroform, then dried under a nitrogen gas stream and lyophilized overnight. For fluorescence experiments, buffer was added to dry lipid films and vortexed for 1 h; then the lipid suspension was freeze-thawed 6 times and extruded 20 times through polycarbonate membranes with 0.1 μm diameter pores to obtain LUVs. For circular dichroism measurements, peptide samples in SUVs were prepared using the following protocol. Lipids were dissolved in chloroform and added to an equal volume of peptide solution dissolved in TFE containing appropriate peptide concentration. The samples were vortexed and lyophilized overnight. The dry samples were rehydrated with phosphate buffer (5 mM) for 1 h and sonicated for 30 min.
Membrane lipid mixing was followed by the resonance energy transfer assay (FRET)[39].

[2] = Tryptophan fluorescence, binding isotherm and partition coefficient; assay type: physicochemical; settings: peptide 4 µM, λex 295 nm
Method: Emission spectra of the tryptophan contained in the peptide (4 µM) in the absence or presence of target vesicles were recorded between 300 and 400 nm with λex 295 nm in order to determine the presence of the peptide inside the membrane. To establish the strength of peptide-lipid interaction, LUVs were added to the peptide solution (4 µM) and the fluorescence intensity was recorded as a function of the lipid/peptide molar ratio (L/P), in three to four separate experiments. The results were corrected for the dilution factor. We used an L/P ratio of 200:1. […] F∞ was obtained by extrapolation of a double reciprocal plot of the total peptide fluorescence vs the total lipid concentration in the outer leaflet. The fraction of membrane-bound peptide, fb, was determined by fb = (F − F0)/(F∞ − F0), where F represents the fluorescence of peptide after the addition of the vesicles and F0 represents the fluorescence of the unbound peptide. fb allowed us to calculate the equilibrium concentration of the free peptide in the solution, Cf, and the extent of peptide binding Xb. […]
The presence of a tryptophan residue in the middle of the sequence of gH625, allowed the evaluation of the degree of peptide penetration into liposomes of different composition. In particular, we compared the fluorescence emission spectra in vesicles mimicking the BBB and the liver with that in buffer. […]

[3] = Tryptophan quenching by acrylamide in buffer; assay type: physicochemical; settings: no LUVs, peptide 4 µM, acrylamide up to 0.2 M, λex 295 nm, λem 340 nm
Method: A solution containing 4 µM of gH625 in the absence or presence of LUVs at a peptide/lipid molar ratio of 1/200, was titrated with the water-soluble quencher acrylamide (4 M mother solution). The maximal concentration of acrylamide in the samples is 0.2 M. Fluorescence was measured with λex 295 nm and λem 340 nm[43]. The data were analysed with the Stern-Volmer equation[43], F0/F = 1 + Ksv [Q], where F0 and F represent the fluorescence intensities in the absence and the presence of the quencher (Q), respectively. The Ksv is the Stern-Volmer quenching constant, and is correlated to the accessibility of the tryptophan residue to acrylamide. […] Ksv is thus determined by the amount of non-lipid-associated free peptide as well as the peptide fraction located on the surface of the bilayer.
The observed changes in the tryptophan emission upon binding to lipid vesicles indicate gH625 insertion into the hydrophobic region of the bilayers. We determined the accessibility of the tryptophan residues of membrane bound peptides towards acrylamide, a neutral, water-soluble quencher, which is unable to penetrate into the hydrophobic core of the lipid bilayer. In fact, tryptophan residues more deeply buried inside the membrane are less strongly quenched.

SMILES: CC[C@H](C)[C@H](NC(=O)[C@H](CC(C)C)NC(=O)[C@H](C)NC(=O)[C@H](CC(N)=O)NC(=O)[C@H](Cc1ccc(O)cc1)NC(=O)[C@H](Cc1c[nH]cn1)NC(=O)[C@H](C)NC(=O)[C@H](Cc1c[nH]c2ccccc12)NC(=O)[C@H](CCCNC(=N)N)NC(=O)[C@@H](NC(=O)[C@H](CC(C)C)NC(=O)[C@@H](NC(=O)[C@H](CO)NC(=O)[C@H](C)NC(=O)[C@H](CC(C)C)NC(=O)CNC(=O)[C@@H](N)Cc1c[nH]cn1)[C@@H](C)O)[C@@H](C)O)C(=O)N[C@@H](CCCNC(=N)N)C(=O)N[C@@H](C)C(=O)N[C@@H](Cc1ccccc1)C(N)=O [gH625] (H-HGLASTLTRWAHYNALIRAF-NH2)
- Maximum peptide/lipid ratio (P/L), complete fusion of vesicles ([1]; LUVs DSPC/POPE/PI/PS/lysoPC/SM/DOPG (37/21/7/9/3/18/5)): 0.7
- Maximum peptide/lipid ratio (P/L), complete fusion of vesicles ([1]; LUVs PI/DOPE/DPPC/PS/Chol/SM (4/23/30/8/20/15)): 0.05
- Tryptophan fluorescence emission (intensity increase, blue shift): penetration into bilayer ([2]; BBB mimicking LUVs vs buffer): capable of penetrating both lipid bilayers
- Tryptophan fluorescence emission (intensity increase, blue shift): penetration into bilayer ([2]; liver mimicking LUVs vs buffer): capable of penetrating both lipid bilayers
- Stern-Volmer quenching constant (Ksv) [3]: 10.21 ± 0.15 M⁻¹

Reference: PMC6138628, “Enhanced uptake of gH625 by blood brain barrier compared to liver in vivo: characterization of the mechanism by an in vitro model and implications for delivery” (Scientific Reports, 2018)
